Measurements published in publication PMC12030043, “Preparation and Therapeutic Evaluation of Engineered Semaglutide and Statin–Lipid Conjugate-Based Nanoparticle” (Pharmaceutics, 2025).

Experiments:
[1] = system: high-fat diet (HFD)-fed mouse model; test: Oral glucose tolerance test (OGTT) in HFD-fed mice; format: in vivo, C57BL/6 mice; conditions: day 64, 19 h fasting, oral glucose 2 g/kg, 0-180 min, glucometer, n = 3; RO 0.5 mg/kg, RLC 1 mg/kg, SRLC NPs 1.1 mg/kg s.c.
Experimental: (§1) All animal experiments were conducted under the standard regulations of the Institutional Animal Care and Use Committee (IACUC) at Konkuk University (ref. no. KU22078-1). The animals were housed in a controlled environment with regulated temperature and humidity, maintained under a 12 h light–dark cycle. Obesity was induced in 5-week-old male C57BL/6 mice through dietary control for 69 days. A total of 25 mice were used and divided into five experimental groups: negative control (regular diet, RD), positive control (high-fat diet, HFD), RO (0.5 mg/kg), RLC (1 mg/kg), and SRLC NPs (1.1 mg/kg). The RO dose was set at half that of RLC due to its molecular weight being approximately twice that of RLC, ensuring equivalent molar exposure. Additionally, the SRLC NP dose was adjusted to 1.1 mg/kg as it comprised 1 mg of RLC and 0.1 mg of semaglutide, allowing for the accurate comparison of therapeutic effects. While the RD group received a normal diet, the other groups were fed a high-fat diet (HFD) consisting of 60 kcal% fat (D12492, Research Diets, New Brunswick, NJ, USA). The body weights of the mice were measured weekly. Starting from day 28 of the dietary intervention, each group received their respective substances via subcutaneous injection every three days. […] Blood glucose levels were then measured at time intervals of 0, 15, 30, 60, 90, 120, and 180 min (n = 3).

[2] = system: high-fat diet (HFD)-fed mouse model; test: Histopathology (H&E and oil red O staining) of liver and adipose tissue in HFD-fed mice; format: in vivo, C57BL/6 mice; conditions: for lipid staining and fat droplet accumulation in liver tissue (in words): H&E and ORO staining; for lipid staining and fat droplet accumulation in liver tissue (in words) / quantification of ORO staining: RO 0.5, RLC 1, SRLC NPs 1.1 mg/kg s.c.; for diameter of the adipocyte in sWAT: HFD group 60.32 ± 6.95 µm; for diameter of the adipocyte in sWAT / diameter of the adipocyte in eWAT: n = 7; for diameter of the adipocyte in eWAT: HFD group 64.12 ± 12.51 µm; for area of the adipocyte in sWAT: HFD group 78.86 ± 1.38%; for quantification of ORO staining: liver tissue, HFD group = 100.00 ± 15.00%
Experimental: All animal experiments were conducted under the standard regulations of the Institutional Animal Care and Use Committee (IACUC) at Konkuk University (ref. no. KU22078-1). The animals were housed in a controlled environment with regulated temperature and humidity, maintained under a 12 h light–dark cycle. Obesity was induced in 5-week-old male C57BL/6 mice through dietary control for 69 days. A total of 25 mice were used and divided into five experimental groups: negative control (regular diet, RD), positive control (high-fat diet, HFD), RO (0.5 mg/kg), RLC (1 mg/kg), and SRLC NPs (1.1 mg/kg). The RO dose was set at half that of RLC due to its molecular weight being approximately twice that of RLC, ensuring equivalent molar exposure. Additionally, the SRLC NP dose was adjusted to 1.1 mg/kg as it comprised 1 mg of RLC and 0.1 mg of semaglutide, allowing for the accurate comparison of therapeutic effects. While the RD group received a normal diet, the other groups were fed a high-fat diet (HFD) consisting of 60 kcal% fat (D12492, Research Diets, New Brunswick, NJ, USA). The body weights of the mice were measured weekly. Starting from day 28 of the dietary intervention, each group received their respective substances via subcutaneous injection every three days. Five days before the end of the experiment, an oral glucose tolerance test (OGTT) was conducted to assess glucose sensitivity. After 19 h of fasting, all experimental groups were administered a glucose solution orally (2 g/kg). Blood glucose levels were then measured at time intervals of 0, 15, 30, 60, 90, 120, and 180 min (n = 3). Blood glucose levels were assessed using a glucometer (G CARE, GC Medical Science, Yongin, Republic of Korea). On the final day of the experiment, after 14 h of fasting, the mice were anesthetized via intraperitoneal administration of 2,2,2-tribromoethanol (TBE), and blood samples were collected. Hepatotoxicity and lipid profiling analyses were conducted using the collected blood samples, while liver tissues were subjected to hematoxylin and eosin (H&E) and oil red O (ORO) staining for further evaluation. All analyses were performed by KP&T Technology (Cheongju, Republic of Korea).
Representative images of mice from the HFD group and the SRLC NPs-treated group on the final day of the experiment are shown in Figure 9A. To evaluate the pathological changes at the tissue level and the therapeutic effects of SRLC NPs, hematoxylin and eosin (H&E) staining and oil red O (ORO) staining were performed (Figure 9B). These staining analyses were conducted to confirm the reduction in hepatic fat accumulation and assess adipose tissue remodeling following SRLC NPs treatment. […] The area of the adipocyte in sWAT (n = 4) was as follows: HFD, 78.86 ± 1.38%; RO, 77.51 ± 2.52%; RLC, 72.72 ± 2.75%; and SRLC NPs, 47.45 ± 1.03% (Figure 9E). The diameter of the adipocyte in eWAT (n = 7) was the following: HFD, 64.12 ± 12.51 µm; RO, 59.53 ± 6.42 µm; RLC, 57.01 ± 7.04 µm; and SRLC NPs, 33.79 ± 3.62 µm (Figure 9F). The area of the adipocyte in eWAT (n = 4) was as follows: HFD, 76.44 ± 1.91%; RO, 79.30 ± 1.91%; RLC, 79.223 ± 1.53%; and SRLC NPs, 63.28 ± 2.94% (Figure 9G).

[3] = system: high-fat diet (HFD)-fed mouse model; test: Anti-obesity effect (body weight) in high-fat diet (HFD)-fed mouse model; format: in vivo; conditions: HFD-fed C57BL/6 mice, day 69, s.c. every three days from day 28; RO 0.5 mg/kg, SRLC NPs 1.1 mg/kg; mean ± S.D., n = 5
Experimental: as §1

[4] = conventional semaglutide formulations; ref [11],[12]; cited from earlier work
Description: Obesity and non-alcoholic fatty liver disease (NAFLD) have emerged as critical health concerns in modern society, closely linked to diabetes, cardiovascular diseases, and metabolic syndrome. As one of the most rapidly increasing metabolic disorders worldwide, there is a continuous demand for the development of effective therapeutic agents and treatment strategies.

fibroblast cells = test: Cytotoxicity assay in fibroblast cells (EZ-Cytox); format: cell-based; conditions: 100 µg/mL, 24 h, absorbance 450 nm/600 nm, relative to untreated control, mean ± S.D., n = 5
Experimental: The cytotoxicity of the RLC and SRLC nanoparticles was evaluated using fibroblast cells obtained from the Korean Cell Line Bank (Seoul, Republic of Korea). The fibroblast cells were cultured in high-glucose Dulbecco’s modified Eagle’s medium (DMEM) supplemented with 10% (v/v) fetal bovine serum (FBS) and 1% antibiotic–antimycotic solution. The cells were then seeded into a 96-well culture plate at a density of 1.0 × 10^4 cells per well and incubated for 1 h at 37 °C in a humidified atmosphere containing 5% CO2 to allow stabilization. Following stabilization, the cells were treated with RLC and SRLC nanoparticles at concentrations ranging from 0.1 to 100 […] for 24 h. Cell viability (n = 5) was evaluated using the EZ-Cytox cell viability assay kit, with absorbance readings taken at 450 nm and 600 nm using a microplate reader (SPECTROstar Nano, BMG LABTECH, Ortenberg, Germany). The viability of the treated cells was determined by comparing the UV absorbance values of the samples to those of the untreated control group.
To evaluate the cytotoxic effects of SRLC NPs, a cytotoxicity assay was performed using fibroblast cells at concentrations ranging from 0.1 to 100 µg/mL (Figure 6A).

[5] = Zeta potential measurement; format: physicochemical; conditions: Zetasizer Nano; RLC alone and semaglutide–RLC (1:10) formulation; mean ± S.D.
Experimental: (§2) To determine the optimal formulation and final composition of the semaglutide–RLC nanoparticles (SRLC NPs), a precipitation evaluation experiment was conducted using various mass ratios (1:10, 1:20, 1:30, w/w) of semaglutide to RLC. Based on stability and particle size analysis, the 1:10 ratio was selected as the optimal formulation, and this ratio was maintained in the final product composition to ensure consistency in therapeutic efficacy and physicochemical properties. The resulting mixture was used immediately without undergoing a separate freeze-drying process. For nanoparticle preparation, semaglutide ([…]) was dissolved in 1 mL of DW, while RLC ([…]) was dissolved in 1 mL of DMSO. […] The stability of each formulation was assessed by measuring particle size at multiple time points (0, 0.5, 1, 2, 3, 4, and 5 days) using dynamic light scattering (DLS; Zetasizer Nano, Malvern Instruments, Worcestershire, UK). The zeta potential of both RLC alone and the semaglutide–RLC (1:10) formulation was also measured to evaluate the surface charge and colloidal stability of the nanoparticles. Additionally, in vivo stability was evaluated by preparing 1 mL of Dulbecco’s phosphate-buffered saline (DPBS) containing 10% fetal bovine serum (FBS) and 5% DMSO, followed by particle size measurements at different time points (0, 0.5, 1, and 2 days). […]

[6] = Particle size by dynamic light scattering (DLS) in aqueous solution; format: physicochemical; conditions: 1 mL distilled water containing 5% DMSO, semaglutide fixed at 0.1 mg, semaglutide alone 0.1 mg/mL, RLC alone 1 mg/mL, mean ± S.D., n = 3
Experimental: as §2

zeta potential [5] [mV] | particle size [6] [nm] | SMILES | blood glucose response in OGTT (in words) [1] | lipid staining and fat droplet accumulation in liver tissue (in words) [2] | diameter of the adipocyte in sWAT ([2]; H&E, mean ± S.D.) [µm] | diameter of the adipocyte in eWAT ([2]; H&E, mean ± S.D.) [µm] | area of the adipocyte in eWAT ([2]; H&E, HFD group 76.44 ± 1.91%, mean ± S.D., n = 4) [%] | area of the adipocyte in sWAT ([2]; H&E, mean ± S.D., n = 4) [%] | quantification of ORO staining ([2]; mean ± S.D., n = 4) [%] | body weight at the end of the experiment [3] [g] | oral bioavailability [4] | cell viability (fibroblast cells) [%]
– | – | CC(C)c1nc(N(C)S(C)(=O)=O)nc(-c2ccc(F)cc2)c1/C=C/[C@@H](O)C[C@@H](O)CC(=O)O [RO, Rosuvastatin calcium] | sharp increase in blood glucose levels immediately after administration, followed by a gradual decline | abnormal fat droplet accumulation | 51.20 ± 8.99 | 59.53 ± 6.42 | 79.30 ± 1.91 | 77.51 ± 2.52 | 70.50 ± 8.02 | 36.20 ± 2.34 | – | –
– | – | CC[C@H](C)[C@H](NC(=O)[C@H](Cc1ccccc1)NC(=O)[C@H](CCC(=O)O)NC(=O)[C@H](CCCCNC(=O)COCCOCCNC(=O)COCCOCCNC(=O)CC[C@H](NC(=O)CCCCCCCCCCCCCCCCC(=O)O)C(=O)O)NC(=O)[C@H](C)NC(=O)[C@H](C)NC(=O)[C@H](CCC(N)=O)NC(=O)CNC(=O)[C@H](CCC(=O)O)NC(=O)[C@H](CC(C)C)NC(=O)[C@H](Cc1ccc(O)cc1)NC(=O)[C@H](CO)NC(=O)[C@H](CO)NC(=O)[C@@H](NC(=O)[C@H](CC(=O)O)NC(=O)[C@H](CO)NC(=O)[C@@H](NC(=O)[C@H](Cc1ccccc1)NC(=O)[C@@H](NC(=O)CNC(=O)[C@H](CCC(=O)O)NC(=O)C(C)(C)NC(=O)[C@@H](N)Cc1cnc[nH]1)[C@@H](C)O)[C@@H](C)O)C(C)C)C(=O)N[C@@H](C)C(=O)N[C@@H](Cc1c[nH]c2ccccc12)C(=O)N[C@@H](CC(C)C)C(=O)N[C@H](C(=O)N[C@@H](CCCNC(=N)N)C(=O)NCC(=O)N[C@@H](CCCNC(=N)N)C(=O)NCC(=O)O)C(C)C [semaglutide] | – | – | – | – | – | – | – | – | ~ 1% | –
−22.08 ± 0.48 | 613.30 ± 26.86 | CC(C)c1nc(N(C)S(C)(=O)=O)nc(-c2ccc(F)cc2)c1C=CC(O)CC(O)CC(=O)NCCNC(=O)CCC(C)C1CCC2C3C(O)CC4CC(O)CCC4(C)C3CCC12C (stereo not drawn) [RLC] | sharp increase in blood glucose levels immediately after administration, followed by a gradual decline | abnormal fat droplet accumulation | 49.79 ± 7.09 | 57.01 ± 7.04 | – | 72.72 ± 2.75 | 49.50 ± 9.53 | – | – | 85.60 ± 2.87
